According to ChEMBL document CHEMBL1201862, “PubChem BioAssay data set” (2004):
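Five concentrations, 48 hours, 96-well plates. GI50 = concentration required for 50% inhibition of growth.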 Calls of active or inactive are those of the source. Cut-off read from the data, not from the text of the source: active = GI50 up to about 1.1 µM and inactive = higher.

Tests used:
Test in all cases: growth of human tumour cells (NCI), 48 h
A498 = system: A498
SN12C = system: SN12C
COLO 205 = system: COLO 205
CAKI-1 = system: CAKI-1
SNB-19 = system: SNB-19
Malme-3M = system: Malme-3M
UACC-257 = system: UACC-257
HOP-18 = system: HOP-18
U-251 = system: U-251
CCRF-CEM = system: CCRF-CEM
HCT-116 = system: HCT-116
SW-620 = system: SW-620
SK-OV-3 = system: SK-OV-3
LOX IMVI = system: LOX IMVI
NCI-H522 = system: NCI-H522
EKVX = system: EKVX
SR = system: SR
MDA-MB-435 = system: MDA-MB-435
BT-549 = system: BT-549
NCI/ADR-RES = system: NCI/ADR-RES

Structure (SMILES) | GI50 (A498) | GI50 (SN12C) | GI50 (COLO 205) | GI50 (CAKI-1) | GI50 (SNB-19) | GI50 (Malme-3M) | GI50 (UACC-257) | GI50 (HOP-18) | GI50 (U-251) | GI50 (CCRF-CEM) | GI50 (HCT-116) | GI50 (SW-620) | GI50 (SK-OV-3) | GI50 (LOX IMVI) | GI50 (NCI-H522) | GI50 (EKVX) | GI50 (SR) | GI50 (MDA-MB-435) | GI50 (BT-549) | GI50 (NCI/ADR-RES)
Cc1c2ccncc2c(C)c2c1[nH]c1ccc(Oc3ccccc3)cc12 | 5.62 µM (inactive) | 1.81 µM (inactive) | 2.52 µM (inactive) | 3.61 µM (inactive) | 10.6 µM (inactive) | 1.79 µM (inactive) | 2.45 µM (inactive) | 6.04 µM (inactive) | 1.67 µM (inactive) | 2.17 µM (inactive) | 2.56 µM (inactive) | 2.67 µM (inactive) | 6.46 µM (inactive) | 1.93 µM (inactive) | 2.37 µM (inactive) | 5.82 µM (inactive) | 2.85 µM (inactive) | – | – | –
CC1=C(N(C)C)C(=O)c2nc3n(c2C1=O)CCC3OC(N)=O (stereo unspecified) | 13.2 µM (inactive) | 15.2 µM (inactive) | 18 µM (inactive) | 18.5 µM (inactive) | 17.5 µM (inactive) | 11.2 µM (inactive) | 14.2 µM (inactive) | 17.7 µM (inactive) | 23.2 µM (inactive) | 15.1 µM (inactive) | 15.4 µM (inactive) | 18.7 µM (inactive) | 15.2 µM (inactive) | 10.9 µM (inactive) | 15.2 µM (inactive) | 20.5 µM (inactive) | 31.3 µM (inactive) | – | – | –
O=C1/C(=C/c2ccc3c(c2)OCO3)CCC1CN1CCOCC1 (stereo unspecified) | 14.8 µM (inactive) | 4.06 µM (inactive) | 9.73 µM (inactive) | 3.25 µM (inactive) | 15.4 µM (inactive) | 7.31 µM (inactive) | 9.68 µM (inactive) | 17.3 µM (inactive) | 7.05 µM (inactive) | 1.54 µM (inactive) | 3.25 µM (inactive) | 2.07 µM (inactive) | 18.4 µM (inactive) | 2.44 µM (inactive) | 1.04 µM (active) | 16.6 µM (inactive) | 1.65 µM (inactive) | 14.3 µM (inactive) | 18 µM (inactive) | –
C[C@]12CC[C@H](O)CC1=CC[C@@H]1C2CC[C@]2(C)C(=O)N(N)C(=O)CC12 (stereo partly specified) | > 100 µM (inactive) | > 100 µM (inactive) | > 100 µM (inactive) | > 100 µM (inactive) | > 100 µM (inactive) | > 100 µM (inactive) | > 100 µM (inactive) | > 100 µM (inactive) | > 100 µM (inactive) | > 100 µM (inactive) | > 100 µM (inactive) | > 100 µM (inactive) | > 100 µM (inactive) | > 100 µM (inactive) | > 100 µM (inactive) | > 100 µM (inactive) | > 100 µM (inactive) | – | – | –
C[N+](C)(C)CC(=O)N/N=C(\C(=O)NC1=C(Cl)C(=O)c2ccccc2C1=O)C(C#N)c1nc(-c2ccc([N+](=O)[O-])cc2)cs1 (stereo unspecified) | 16.9 µM (inactive) | 9.42 µM (inactive) | 17.2 µM (inactive) | 26.2 µM (inactive) | 12.9 µM (inactive) | 1.86 µM (inactive) | 3.18 µM (inactive) | 6.4 µM (inactive) | 6.97 µM (inactive) | 8.28 µM (inactive) | 5.78 µM (inactive) | 8.15 µM (inactive) | 21.1 µM (inactive) | 1.69 µM (inactive) | 7.31 µM (inactive) | 14.1 µM (inactive) | 5.62 µM (inactive) | 1.87 µM (inactive) | 3.77 µM (inactive) | 11.7 µM (inactive)
CN(C)c1nc(N(C)C)nc(N(C)CN(C)c2nc(N(C)C)nc(N(C)C)n2)n1 | > 100 µM (inactive) | > 100 µM (inactive) | > 100 µM (inactive) | > 100 µM (inactive) | > 100 µM (inactive) | > 100 µM (inactive) | > 100 µM (inactive) | > 100 µM (inactive) | > 100 µM (inactive) | > 100 µM (inactive) | > 100 µM (inactive) | > 100 µM (inactive) | > 100 µM (inactive) | > 100 µM (inactive) | 76.9 µM (inactive) | > 100 µM (inactive) | > 100 µM (inactive) | – | – | –
O=C1/C(=C/c2ccccc2)CN(C(=O)/C=C/c2ccccc2)C/C1=C\c1ccccc1 | 33.3 µM (inactive) | 5.43 µM (inactive) | 4.92 µM (inactive) | 23.7 µM (inactive) | 8.15 µM (inactive) | 16.1 µM (inactive) | 12.7 µM (inactive) | 33.7 µM (inactive) | 3.59 µM (inactive) | 2.85 µM (inactive) | 0.764 µM (active) | 2.39 µM (inactive) | 27.7 µM (inactive) | 2.55 µM (inactive) | 8.99 µM (inactive) | 24.5 µM (inactive) | 1.3 µM (inactive) | 1.93 µM (inactive) | 2.26 µM (inactive) | 1.86 µM (inactive)
COC(=O)C(=O)C(C#N)c1cccc(Cl)c1 (stereo unspecified) | > 100 µM (inactive) | > 100 µM (inactive) | > 100 µM (inactive) | > 100 µM (inactive) | > 100 µM (inactive) | > 100 µM (inactive) | > 100 µM (inactive) | > 100 µM (inactive) | > 100 µM (inactive) | > 100 µM (inactive) | > 100 µM (inactive) | > 100 µM (inactive) | > 100 µM (inactive) | > 100 µM (inactive) | > 100 µM (inactive) | > 100 µM (inactive) | > 100 µM (inactive) | – | – | –
CN1CCN(C)C12C=CC=CC21CC1 | > 100 µM (inactive) | > 100 µM (inactive) | > 100 µM (inactive) | > 100 µM (inactive) | > 100 µM (inactive) | > 100 µM (inactive) | > 100 µM (inactive) | > 100 µM (inactive) | > 100 µM (inactive) | > 100 µM (inactive) | > 100 µM (inactive) | > 100 µM (inactive) | > 100 µM (inactive) | > 100 µM (inactive) | > 100 µM (inactive) | > 100 µM (inactive) | > 100 µM (inactive) | – | – | –
